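GI50 = concentration required for 50% inhibition of growth. TGI marks complete inhibition of growth.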
What was measured:
Test in all cases: growth of human tumour cells (NCI), 384-well format
SK-MEL-5 melanoma = system: SK-MEL-5 melanoma
HCC-2998 colon = system: HCC-2998 colon
UACC-257 melanoma = system: UACC-257 melanoma
SNB-75 CNS = system: SNB-75 CNS
SK-MEL-2 melanoma = system: SK-MEL-2 melanoma
HOP-92 NSCLC = system: HOP-92 NSCLC
EKVX NSCLC = system: EKVX NSCLC
SNB-19 CNS = system: SNB-19 CNS
SF-539 CNS = system: SF-539 CNS
A549 NSCLC = system: A549 NSCLC
MALME-3M melanoma = system: MALME-3M melanoma
SW-620 colon = system: SW-620 colon
DU-145 prostate = system: DU-145 prostate
COLO 205 colon = system: COLO 205 colon
SN12C renal = system: SN12C renal
U251 glioblastoma = system: U251 glioblastoma
IGROV1 ovarian = system: IGROV1 ovarian
PC-3 prostate = system: PC-3 prostate
OVCAR-4 ovarian = system: OVCAR-4 ovarian
NCI-H322M lung = system: NCI-H322M lung
KM12 colon = system: KM12 colon
NCI-H460 NSCLC = system: NCI-H460 NSCLC
786-0 renal = system: 786-0 renal
SK-OV-3 ovarian = system: SK-OV-3 ovarian
MDA-MB-468 breast = system: MDA-MB-468 breast
HOP-62 NSCLC = system: HOP-62 NSCLC
OVCAR-5 ovarian = system: OVCAR-5 ovarian
OVCAR-8 ovarian = system: OVCAR-8 ovarian
SK-MEL-28 melanoma = system: SK-MEL-28 melanoma
MOLT-4 leukemia = system: MOLT-4 leukemia
SF-295 CNS = system: SF-295 CNS
SF-268 CNS = system: SF-268 CNS
MCF7 breast = system: MCF7 breast
MDA-MB-231 breast = system: MDA-MB-231 breast
HL-60(TB) leukemia = system: HL-60(TB) leukemia
UACC-62 melanoma = system: UACC-62 melanoma
CCRF-CEM leukemia = system: CCRF-CEM leukemia
SR leukemia = system: SR leukemia
CAKI-1 renal = system: CAKI-1 renal
M14 melanoma = system: M14 melanoma
HT29 colon = system: HT29 colon
RXF 393 renal = system: RXF 393 renal
MDA-MB-435 melanoma = system: MDA-MB-435 melanoma
BT-549 breast = system: BT-549 breast
T-47D breast = system: T-47D breast
NCI-H226 lung = system: NCI-H226 lung
NCI/ADR-RES ovarian = system: NCI/ADR-RES ovarian
ACHN renal = system: ACHN renal
NCI-H23 lung = system: NCI-H23 lung
RPMI-8226 leukemia = system: RPMI-8226 leukemia
A498 renal = system: A498 renal
HCT-15 colon = system: HCT-15 colon
HS 578T breast = system: HS 578T breast
NCI-H522 lung = system: NCI-H522 lung
OVCAR-3 ovarian = system: OVCAR-3 ovarian

CC1=C(CO)C2=C(C)C3(CC3)[C@@](C)(O)C(=O)C2=C1
GI50 (SK-MEL-5 melanoma): 166 nM | TGI (SK-MEL-5 melanoma): 376 nM | GI50 (HCC-2998 colon): 110 nM | TGI (HCC-2998 colon): 240 nM | GI50 (UACC-257 melanoma): 216 nM | TGI (UACC-257 melanoma): 465 nM | GI50 (SNB-75 CNS): 119 nM | TGI (SNB-75 CNS): 250 nM | GI50 (SK-MEL-2 melanoma): 237 nM | TGI (SK-MEL-2 melanoma): 392 nM | GI50 (HOP-92 NSCLC): 124 nM | TGI (HOP-92 NSCLC): 445 nM | GI50 (EKVX NSCLC): 203 nM | TGI (EKVX NSCLC): 452 nM | GI50 (SNB-19 CNS): 317 nM | TGI (SNB-19 CNS): 1240 nM | GI50 (SF-539 CNS): 173 nM | TGI (SF-539 CNS): 313 nM | GI50 (A549 NSCLC): 96.2 nM | TGI (A549 NSCLC): 527 nM | GI50 (MALME-3M melanoma): 152 nM | TGI (MALME-3M melanoma): 296 nM | GI50 (SW-620 colon): 1160 nM | TGI (SW-620 colon): 3150 nM | GI50 (DU-145 prostate): 46.8 nM | TGI (DU-145 prostate): 305 nM | GI50 (COLO 205 colon): 132 nM | TGI (COLO 205 colon): 272 nM | GI50 (SN12C renal): 231 nM | TGI (SN12C renal): 761 nM | GI50 (U251 glioblastoma): 203 nM | TGI (U251 glioblastoma): 410 nM | GI50 (IGROV1 ovarian): 163 nM | TGI (IGROV1 ovarian): 447 nM | GI50 (PC-3 prostate): 186 nM | TGI (PC-3 prostate): 404 nM | GI50 (OVCAR-4 ovarian): 201 nM | TGI (OVCAR-4 ovarian): 392 nM | GI50 (NCI-H322M lung): 182 nM | TGI (NCI-H322M lung): 369 nM | GI50 (KM12 colon): 1400 nM | TGI (KM12 colon): 3360 nM | GI50 (NCI-H460 NSCLC): 43.7 nM | TGI (NCI-H460 NSCLC): 174 nM | GI50 (786-0 renal): 180 nM | TGI (786-0 renal): 381 nM | GI50 (SK-OV-3 ovarian): 179 nM | TGI (SK-OV-3 ovarian): 390 nM | GI50 (MDA-MB-468 breast): 45.1 nM | TGI (MDA-MB-468 breast): 125 nM | GI50 (HOP-62 NSCLC): 159 nM | TGI (HOP-62 NSCLC): 316 nM | GI50 (OVCAR-5 ovarian): 213 nM | TGI (OVCAR-5 ovarian): 519 nM | GI50 (OVCAR-8 ovarian): 219 nM | TGI (OVCAR-8 ovarian): 527 nM | GI50 (SK-MEL-28 melanoma): 251 nM | TGI (SK-MEL-28 melanoma): 624 nM | GI50 (MOLT-4 leukemia): 147 nM | TGI (MOLT-4 leukemia): 336 nM | GI50 (SF-295 CNS): 185 nM | TGI (SF-295 CNS): 374 nM | GI50 (SF-268 CNS): 143 nM | TGI (SF-268 CNS): 318 nM | GI50 (MCF7 breast): 184 nM | TGI (MCF7 breast): 496 nM | GI50 (MDA-MB-231 breast): 203 nM | TGI (MDA-MB-231 breast): 473 nM | GI50 (HL-60(TB) leukemia): 179 nM | TGI (HL-60(TB) leukemia): 334 nM | GI50 (UACC-62 melanoma): 394 nM | TGI (UACC-62 melanoma): 1520 nM | GI50 (CCRF-CEM leukemia): 1490 nM | TGI (CCRF-CEM leukemia): 2830 nM | GI50 (SR leukemia): 171 nM | TGI (SR leukemia): 361 nM | GI50 (CAKI-1 renal): 178 nM | TGI (CAKI-1 renal): 372 nM | GI50 (M14 melanoma): 234 nM | TGI (M14 melanoma): 576 nM | GI50 (HT29 colon): 184 nM | TGI (HT29 colon): 395 nM | GI50 (RXF 393 renal): 16.7 nM | TGI (RXF 393 renal): 35.8 nM | GI50 (MDA-MB-435 melanoma): 1760 nM | TGI (MDA-MB-435 melanoma): 3480 nM | GI50 (BT-549 breast): 132 nM | TGI (BT-549 breast): 269 nM | GI50 (T-47D breast): 159 nM | TGI (T-47D breast): 423 nM | GI50 (NCI-H226 lung): 297 nM | TGI (NCI-H226 lung): 793 nM | GI50 (NCI/ADR-RES ovarian): 222 nM | TGI (NCI/ADR-RES ovarian): 428 nM | GI50 (ACHN renal): 214 nM | TGI (ACHN renal): 404 nM | GI50 (NCI-H23 lung): 53.9 nM | TGI (NCI-H23 lung): 181 nM | GI50 (RPMI-8226 leukemia): 5960 nM | TGI (RPMI-8226 leukemia): 18000 nM | GI50 (A498 renal): 50.8 nM | TGI (A498 renal): 367 nM | GI50 (HCT-15 colon): 188 nM | TGI (HCT-15 colon): 365 nM | GI50 (HS 578T breast): 325 nM | TGI (HS 578T breast): 1070 nM | GI50 (NCI-H522 lung): 116 nM | TGI (NCI-H522 lung): 244 nM | GI50 (OVCAR-3 ovarian): 152 nM | TGI (OVCAR-3 ovarian): 312 nM
